Measured values as given in US9211310B2, “Use of a Chinese medicine composition in preparing medicaments for treating secondary prevention of myocardial infarction” (TASLY PHARMACEUTICAL GROUP CO., LTD, priority 2010, dated 2015).

System: patients after acute myocardial infarction
Assay: Life quality, Seattle Angina Questionnaire (SAQ), same clinical trial
Format: in vivo, human
Excerpt: 3508 patients who were in accordance with the diagnostic standards of AMI for 28 days to 2 years and differentiated as Qi deficiency and blood stagnation syndrome by TCM were studied. 0.5 g Chinese medicine composition prepared by the method of EXAMPLE 1 (Coded as QSYQ) was administrated half an hour after meal, 3 times per day.
There were 19 questions in the Seattle angina questionnaire (SAQ), including 5 parts: physical limitation (PL), anginal stability (AS), anginal frequency (AF), treatment satisfaction (TS) and disease perception (DP). After being given necessary explanation by doctors, the questions were answered independently by patients.
They included the overall survival time, angina pectoris score, TCM symptom score and life quality score, where angina pectoris score, TCM symptom score and life quality score were evaluated at randomization, in 1st, 3rd, 6th, 9th, 12th month after treatment and 18th month after follow-up.
All evaluation results of SAQ were described during the period of observation, and Wilcoxon rank sum test was used for inter-group comparison.
The evaluation results in the SAQ were depicted in different observations, and inter-group comparison was tested by Wilcoxon Rank-sum test.

## CC(=O)Oc1ccccc1C(=O)O [Control group, aspirine]
1 month after treatment, PP
  SAQ 2nd question: Slightly increased, cases: 43
  SAQ 2nd question: Slightly reduced, % of cases: (30.18%)
  SAQ 2nd question: Slightly reduced, cases: 447
  SAQ 3rd question: 1-2 times per week, % of cases: (30.18%)
  SAQ 3rd question: 1-2 times per week, cases: 447
  SAQ 3rd question: 1-3 times per day, % of cases: (2.90%)
  SAQ 3rd question: 1-3 times per day, cases: 43
  SAQ 3rd question: <1 time per week, % of cases: (16.75%)
  SAQ 3rd question: <1 time per week, cases: 248
  SAQ 3rd question: No onset, % of cases: (0.00%)
  SAQ 3rd question: No onset, cases: 0
  SAQ 3rd question: ≧3 times per week, % of cases: (49.63%)
  SAQ 3rd question: ≧3 times per week, cases: 735
  SAQ 3rd question: ≧4 times per day, % of cases: (0.54%)
  SAQ 3rd question: ≧4 times per day, cases: 8
  SAQ Question 1-3: Mildly limited, number of patients: 114
  SAQ Question 1-3: Mildly limited, percent of patients: (7.67%)
  SAQ Question 1-3: Moderately limited, number of patients: 25
  SAQ Question 1-3: Moderately limited, percent of patients: (1.68%)
  SAQ Question 1-3: Not limited, number of patients: 1064
  SAQ Question 1-3: Not limited, percent of patients: (71.60%)
  SAQ Question 1-3: Other reasons, number of patients: 7
  SAQ Question 1-3: Other reasons, percent of patients: (0.47%)
  SAQ Question 1-3: Severely limited, number of patients: 5
  SAQ Question 1-3: Severely limited, percent of patients: (0.34%)
  SAQ Question 1-3: Slightly limited, number of patients: 271
  SAQ Question 1-3: Slightly limited, percent of patients: (18.24%)
  SAQ Question 1-4: Mildly limited, number of patients: 303
  SAQ Question 1-4: Mildly limited, percent of patients: (20.43%)
  SAQ Question 1-4: Moderately limited, number of patients: 138
  SAQ Question 1-4: Moderately limited, percent of patients: (9.31%)
  SAQ Question 1-4: Not limited, number of patients: 521
  SAQ Question 1-4: Not limited, percent of patients: (35.13%)
  SAQ Question 1-4: Other reasons, number of patients: 11
  SAQ Question 1-4: Other reasons, percent of patients: (0.74%)
  SAQ Question 1-4: Severely limited, number of patients: 27
  SAQ Question 1-4: Severely limited, percent of patients: (1.82%)
  SAQ Question 1-4: Slightly limited, number of patients: 483
  SAQ Question 1-4: Slightly limited, percent of patients: (32.57%)
  SAQ Question 1-5: Mildly limited, number of patients: 278
  SAQ Question 1-5: Mildly limited, percent of patients: (18.76%)
  SAQ Question 1-5: Moderately limited, number of patients: 166
  SAQ Question 1-5: Moderately limited, percent of patients: (11.20%)
  SAQ Question 1-5: Not limited, number of patients: 546
  SAQ Question 1-5: Not limited, percent of patients: (36.84%)
  SAQ Question 1-5: Other reasons, number of patients: 9
  SAQ Question 1-5: Other reasons, percent of patients: (0.61%)
  SAQ Question 1-5: Severely limited, number of patients: 24
  SAQ Question 1-5: Severely limited, percent of patients: (1.62%)
  SAQ Question 1-5: Slightly limited, number of patients: 459
  SAQ Question 1-5: Slightly limited, percent of patients: (30.97%)
  SAQ Question 1-9: Mildly limited, % of cases: (16.54%)
  SAQ Question 1-9: Mildly limited, cases: 239
  SAQ Question 1-9: Moderately limited, % of cases: (21.45%)
  SAQ Question 1-9: Moderately limited, cases: 310
  SAQ Question 1-9: Not limited, % of cases: (2.98%)
  SAQ Question 1-9: Not limited, cases: 43
  SAQ Question 1-9: Other reasons, % of cases: (6.44%)
  SAQ Question 1-9: Other reasons, cases: 93
  SAQ Question 1-9: Severely limited, % of cases: (42.70%)
  SAQ Question 1-9: Severely limited, cases: 617
  SAQ Question 1-9: Slightly limited, % of cases: (9.90%)
  SAQ Question 1-9: Slightly limited, cases: 143
3 months after treatment, FAS
  SAQ 2nd question: Clearly increased, % of cases: (0.92%)
  SAQ 2nd question: Clearly increased, cases: 16
  SAQ 2nd question: Clearly reduced, % of cases: (21.15%)
  SAQ 2nd question: Clearly reduced, cases: 368
  SAQ 2nd question: Same, % of cases: (42.13%)
  SAQ 2nd question: Same, cases: 733
  SAQ 2nd question: Slightly increased, % of cases: (3.79%)
  SAQ 2nd question: Slightly increased, cases: 66
  SAQ 2nd question: Slightly reduced, % of cases: (32.01%)
  SAQ 2nd question: Slightly reduced, cases: 557
  SAQ 3rd question: 1-2 times per week, % of cases: (32.01%)
  SAQ 3rd question: 1-2 times per week, cases: 557
  SAQ 3rd question: 1-3 times per day, % of cases: (3.79%)
  SAQ 3rd question: 1-3 times per day, cases: 66
